Laboratory results from ChEMBL document CHEMBL1135096, “4-Aryl/cycloalkyl-5-phenyloxazole derivatives as selective COX-2 inhibitors” (Bioorg Med Chem Lett, 2002).

Assays:
[1] = target: T1, Prostaglandin G/H synthase 2 (Homo sapiens, UniProt P35354)
T1 sequence (P35354 whole entry): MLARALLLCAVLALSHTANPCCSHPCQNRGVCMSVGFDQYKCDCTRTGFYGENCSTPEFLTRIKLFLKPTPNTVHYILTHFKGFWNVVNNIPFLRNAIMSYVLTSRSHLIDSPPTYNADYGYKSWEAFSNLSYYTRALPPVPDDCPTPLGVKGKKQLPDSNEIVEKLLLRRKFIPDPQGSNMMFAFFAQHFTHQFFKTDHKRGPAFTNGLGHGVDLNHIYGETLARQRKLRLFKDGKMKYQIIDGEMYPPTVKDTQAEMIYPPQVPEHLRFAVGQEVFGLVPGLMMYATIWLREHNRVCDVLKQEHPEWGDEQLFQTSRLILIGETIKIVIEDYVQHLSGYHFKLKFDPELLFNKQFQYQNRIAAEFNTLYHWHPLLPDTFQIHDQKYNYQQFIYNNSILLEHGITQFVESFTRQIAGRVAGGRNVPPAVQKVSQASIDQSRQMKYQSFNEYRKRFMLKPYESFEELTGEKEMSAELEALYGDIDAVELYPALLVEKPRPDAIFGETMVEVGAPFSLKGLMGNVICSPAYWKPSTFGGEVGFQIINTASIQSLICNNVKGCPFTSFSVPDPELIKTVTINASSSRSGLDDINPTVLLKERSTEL
Description: In vitro inhibitory activity towards human recombinant Prostaglandin G/H synthase 2 enzyme

[2] = target: Prostaglandin G/H synthase 1 (Homo sapiens, UniProt P23219)
Sequence of Prostaglandin G/H synthase 1 (P23219 whole entry): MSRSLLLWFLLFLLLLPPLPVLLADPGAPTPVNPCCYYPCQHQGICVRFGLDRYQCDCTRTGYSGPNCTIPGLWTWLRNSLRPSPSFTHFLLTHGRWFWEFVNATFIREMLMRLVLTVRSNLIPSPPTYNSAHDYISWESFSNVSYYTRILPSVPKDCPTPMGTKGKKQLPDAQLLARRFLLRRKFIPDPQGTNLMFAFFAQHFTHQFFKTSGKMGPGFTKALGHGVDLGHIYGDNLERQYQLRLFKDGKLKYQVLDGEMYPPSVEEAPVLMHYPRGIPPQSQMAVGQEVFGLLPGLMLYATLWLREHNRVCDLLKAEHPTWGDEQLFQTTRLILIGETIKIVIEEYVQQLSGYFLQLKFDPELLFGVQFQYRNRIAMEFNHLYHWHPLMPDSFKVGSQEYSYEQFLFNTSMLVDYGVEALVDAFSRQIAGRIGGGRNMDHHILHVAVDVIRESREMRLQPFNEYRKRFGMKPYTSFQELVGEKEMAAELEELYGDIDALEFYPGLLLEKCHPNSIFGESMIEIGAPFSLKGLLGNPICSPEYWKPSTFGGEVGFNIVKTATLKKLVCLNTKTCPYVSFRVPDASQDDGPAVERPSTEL
Description: In vitro inhibitory activity towards human platelet recombinant Prostaglandin G/H synthase 1

Row | Compound | IC50 [1] | IC50 [2]
1 | Cc1nc(-c2ccc(F)cc2)c(-c2ccc(S(N)(=O)=O)cc2)o1 | 24 nM | 4.7 µM
2 | CCc1ccc(-c2nc(C)oc2-c2ccc(S(C)(=O)=O)cc2)s1 | 140 nM | > 100 µM
3 | CCS(=O)(=O)c1ccc(-c2oc(C)nc2-c2ccc(F)cc2)cc1 | 38000 nM | > 100 µM
4 | CCc1nc(C2CCCCC2)c(-c2ccc(S(C)(=O)=O)cc2)o1 | 270 nM | 60 µM
5 | Cc1nc(-c2ccccc2)c(-c2ccc(S(C)(=O)=O)cc2)o1 | 90 nM | > 100 µM
6 | CS(=O)(=O)c1ccc(-c2oc(-c3ccccc3)nc2C2CCCCC2)cc1 | > 100000 nM | > 100 µM
7 | Cc1nc(-c2ccc(S(C)(=O)=O)cc2)c(-c2ccc(Cl)s2)o1 |  | 93 µM
8 | Cc1nc(-c2ccc(S(C)(=O)=O)cc2)c(-c2ccc(F)cc2)o1 | 2100 nM | > 100 µM
9 | Cc1nc(-c2ccc(F)cc2)c(-c2ccc(S(C)(=O)=O)cc2)o1 | 70 nM | 42 µM

Next, values leading:

Row | IC50 [1] | IC50 [2] | Compound
10 |  | 47.5 µM | Cc1nc(C2CCCCC2)c(-c2ccc(S(N)(=O)=O)cc2)o1
11 | 18000 nM | > 100 µM | Cc1nc(C2CCCC2)c(-c2ccc(S(C)(=O)=O)cc2)o1
12 |  | > 100 µM | Cc1nc(C2CCCCCC2)c(-c2ccc(S(C)(=O)=O)cc2)o1
13 | 3100 nM | > 100 µM | CNS(=O)(=O)c1ccc(-c2oc(C)nc2C2CCCCC2)cc1
14 |  | > 100 µM | Cc1nc(C2CCCCC2)c(-c2ccc(S(C)(=O)=O)cc2)o1
